According to patent publication US11103478B2, “Anavex2-73 for the treatment of alzheimer's disease” (ANAVEX LIFE SCIENCES CORP., priority 2017, dated 2021):

Legend:
[1] = Randomized, placebo-controlled single ascending dose Phase 1 study in healthy male volunteers; assay type: in vivo, human
Description: See Poster: A Phase 1 Dose Escalation Study to Investigate Safety, Tolerability, and Pharmacokinetics of ANAVEX2-73 in Healthy Male Subjects, CNS Summit 2014, Boca Raton, Fla., by Ole Voges, Ingo Weigmann, Norman Bitterlich, Christoph Schindler and Christopher Missling. […] Based on the frequency and intensity of […] adverse events (TEAEs) the maximum tolerable dose (MTD) and the minimum intolerable dose (MID) were defined as 55 mg and 60 mg, respectively.

[2] = tested on: mild-to-moderate Alzheimer's disease patients; experiment: Phase 2a trial: auditory P300 event related potential (three-stimulus oddball paradigm); assay type: in vivo, human
Description: (§1) The 36-day multicenter randomized clinical trial included both male and female mild-to-moderate Alzheimer's disease patients. ANAVEX2-73 was administered to twelve subjects as an add-on therapy to the donepezil current standard of care. ANAVEX2-73 was administered according to a two-period on-off-on cross-over dosing regimen in which the subjects were administered ANAVEX2-73 for 12 days (1st period) followed by a 12-day wash-out period before being administered ANAVEX2-73 for a second 12-day period (2nd period). Those subjects that were administered ANAVEX2-73 by oral administration during the 1st period were administered ANAVEX2-73 intravenously during the 2nd period, and vice versa. About half of the subjects were administered a 30 mg oral dosage form while the other half of subjects were administered a 50 mg oral dosage form. The intravenous dosage was either 3 mg or 5 mg, with about half of the subjects administered 3 mg and the other half administered 5 mg.
Resting electroencephalographic (EEG) activity and event related potentials (EEG/ERP) were used to assess the cognitive effects of ANAVEX2-73 administration. Event related potentials (ERPs) are voltage changes time-locked to some physical or mental occurrence in ongoing electrical brain activity, as recorded by EEG. Event-related potentials (ERPs) provide a sensitive and reliable measure of the cognitive effects associated with early Alzheimer's disease. […] See for example, New Encycl. Neurosci., Oxford Academic Press, p. 13-18 (2009). For example, ERP tests on young presymptomatic individuals who carry mutations in the presenilin-1 and amyloid precursor protein genes show significant changes in ERP patterns years before the onset of behavioral symptoms and the development of Alzheimer's disease. See for example, Neurology 73, 1649-1655 (2009); Neurology 77, 469-475 (2011). […] For instance, ERP markers of cognitive function are increasingly altered in longitudinal studies on individuals with mild cognitive impairment (MCI) and Alzheimer's disease patients. See for example, Clin. Neurophysiol. 122, 1322-1326 (2011); Clin. Neurophysiol. 121, 194-199 (2010). […] See for example, Neurol. Neurochir. Pol. 35 Suppl 3, 37-43 (2001); Clin. Neuropharmacol. 25, 207-215 (2002); Neurosci. Biomed. Eng. 1, 34-39 (2013).
In particular, the auditory P300 component of the ERP has been widely applied in the study of age-related cognitive dysfunction because it is thought to reflect attentional and memory processes. Auditory P300 is a positive deflection occurring at about 300 ms from stimulus onset. It is generated by the activation of multiple neocortical and limbic regions. […]

[3] = tested on: mild-to-moderate Alzheimer's disease patients; experiment: Phase 2a trial: EEG peak alpha frequency (PAF); assay type: in vivo, human; conditions: 12 patients, day 36
Description: as §1, with “About half of the subjects were administered a 30 mg oral dosage form while the other half of subjects were administered a 50 mg oral dosage form. The intravenous dosage was either 3 mg or 5 mg, with about half of the subjects administered 3 mg and the other half administered 5 mg.” left out
Subjects were tested using a three-stimulus oddball paradigm. […] Electroencephalographic (EEG) activity was recorded from seven electrode sites (Fz, Cz, Pz, F3, P3, F4, and P4) of the international 10-20 system using a COGNISION™ Headset (Neuronetrix). […]
FIG. 8 illustrates electroencephalographic (EEG) peak alpha frequency (PAF) data for twelve patients at baseline and day 36 following the on-off-on ANAVEX2-73 dosing regimen, as compared to a healthy control group. Electroencephalographic (EEG) peak alpha frequency (PAF), measured in Hz, is a distinctive individual “fingerprint” that has been correlated to cognitive performance and reflects a trait or state of cognitive preparedness. […]

[4] = tested on: mild-to-moderate Alzheimer's disease patients; experiment: Phase 2a trial: MMSE and Cogstate scales, safety profile; assay type: in vivo, human
Description: as §1
The results for the twelve subject on-off-on dosing regimen of ANAVEX2-73, shown in FIGS. 5-9, were achieved without any dose optimization. […] An additional 20 subjects will be studied during the remainder of the Phase 2a clinical trial. Phase 2b clinical trials, involving an additional 26-week extension of daily oral dosage administration of ANAVEX2-73 is on-going.

[5] = tested on: patients with early signs of Alzheimer's disease; experiment: Single-patient examples of intermittent dosing in early Alzheimer's disease (Examples 1-5); assay type: in vivo, human
Source text: The following examples show uses of ANAVEX2-73 in the treatment of patients with Alzheimer's disease or presenting with the early signs of Alzheimer's disease. The clinical determination that a patient may have Alzheimer's disease or is presenting with early signs of Alzheimer's disease is well known in the art. By way of example, the following references (and all publications cited herein) are incorporated by reference herein in their entireties: Dementia: From Diagnosis to Management—A Functional Approach 1st Edition, Psychology Press (Feb. 17, 2009); Clinician's Guide to Psychological Assessment and Testing: With Forms and Templates for Effective Practice 1st Edition, Springer Publishing Company (Sep. 18, 2012); Neurodegener. Dis. Manag. 5(3), 191-201 (2015); Artif. Intell. Med. 64(1), 59-74 (2015); Clin. Chem. 60(12), 1585-1586 (2014); and Metabolism 64(3 Suppl 1), S47-50 (2014).
A person presents with early signs of Alzheimer's disease. They are orally administered a pharmaceutical composition containing 30 mg ANAVEX2-73 according to an intermittent dosing regimen where each cycle includes daily administration for 10 days (dosing period) followed by 10 days of no administration (resting period). The patient is administered 30 mg ANAVEX2-73 according to the intermittent dosing regimen for 6 months. Their loss of cognitive function stabilizes during that period.
A person presents with signs of early onset Alzheimer's disease. They are orally administered a pharmaceutical composition containing 50 mg ANAVEX2-73 according to an intermittent dosing regimen where each cycle includes daily administration for 10 days (dosing period) followed by 20 days of no administration (resting period). Their loss of cognitive function stabilizes during that period.
A person presents with signs of early onset Alzheimer's disease. They are administered 3 mg of ANAVEX2-73 intravenously according to an intermittent dosing regimen where each cycle includes daily administration for 5 days (dosing period) followed by 20 days of no administration (resting period) for one year. Their loss of cognitive function stabilizes during that period.
A person presents with signs of early onset Alzheimer's disease. They are administered 5 mg of ANAVEX2-73 intravenously according to an intermittent dosing regimen where each cycle includes daily administration for 14 days (dosing period) followed by 7 days of no administration (resting period) for one year. Their loss of cognitive function stabilizes during that period.
A person presents with early signs of Alzheimer's disease. They are orally administered a pharmaceutical composition containing 50 mg ANAVEX2-73 according to an intermittent dosing regimen where each cycle includes daily administration for 14 days (dosing period) followed by 7 days of no administration (resting period). The patient is administered 50 mg ANAVEX2-73 according to the intermittent dosing regimen for 6 months. Their loss of cognitive function is stabilized during that period.

[6] = molecular target: sigma-1 receptor (Homo sapiens, UniProt Q99720); conditions: believed to bind; cited from earlier work
Sequence of sigma-1 receptor (Q99720 whole entry, species assumed): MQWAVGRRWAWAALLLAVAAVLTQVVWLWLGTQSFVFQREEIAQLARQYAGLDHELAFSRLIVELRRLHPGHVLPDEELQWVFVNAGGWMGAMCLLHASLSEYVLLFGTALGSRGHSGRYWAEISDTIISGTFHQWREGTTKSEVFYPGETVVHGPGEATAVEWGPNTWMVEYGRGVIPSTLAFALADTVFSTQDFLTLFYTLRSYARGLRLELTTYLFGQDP

[7] = tested on: muscarinic acetylcholine receptors; conditions: believed to bind; cited from earlier work
[8] = tested on: amyloid β25-35 peptide (Aβ25-35) toxicity; conditions: cited from earlier work

## CN(C)CC1CCOC1(c1ccccc1)c1ccccc1.Cl (stereo not shown) [ANAVEX2-73, tetrahydro-N,N-dimethyl-2,2-diphenyl-3-furanmethanamine hydrochloride]
[1]; human, in vivo
  observed adverse events: moderate and reversible dizziness and headache
[1]; human, in vivo, po
  QT interval and QTcB: did not reveal any clinically significant changes
  blood pressure, resting heart rate, vital signs and 12-lead ECG: did not show any clinically relevant or dose-dependent changes
  pharmacokinetics: suitable for daily oral dosing
  serious adverse events: No serious adverse events occurred
[1]; male, human, in vivo, po
  minimum intolerable dose (MID): 60 mg
[1]; single oral dose, healthy male volunteers
  maximum tolerable dose (MTD): 55 mg
[2]; 12 patients, day 36, on-off-on regimen (30/50 mg oral, 3/5 mg i.v.), add-on to donepezil
  P300 ERP wave: measured cognitive performance vs baseline: improved measured cognitive performance
[2]; 12 patients, day 36 vs baseline, hydrochloride
  P300 amplitude, Percentage Increase Over Baseline Data: 38%
[2]; day 36 (1 month), change from baseline, donepezil data from the literature
  P300 amplitude change vs historical donepezil at the 1 month time point: about four times higher
[2]; day 36 (1 month), donepezil data from the literature
  percent P300 amplitude change after 1 month vs historical donepezil after 6 months: greater
[3]
  EEG peak alpha frequency (PAF) vs baseline: higher
[4]; Phase 2a trial
  safety profile during Phase 2a: consistent with the Phase 1 data
[4]; preliminary, 12 patients
  Mini Mental State Examination (MMSE) and Cogstate scale changes: consistent with the observed trend of the cognitive EEG/ERP effect
[5]; Example 1: person, 30 mg oral, 10 days on / 10 days off, 6 months
  loss of cognitive function: stabilizes
[5]; Example 2: person, 50 mg oral, 10 days on / 20 days off
  loss of cognitive function: stabilizes
[5]; Example 3: person, 3 mg intravenously, 5 days on / 20 days off, one year
  loss of cognitive function: stabilizes
[5]; Example 4: person, 5 mg intravenously, 14 days on / 7 days off, one year
  loss of cognitive function: stabilizes
[5]; Example 5: person, 50 mg oral, 14 days on / 7 days off, 6 months
  loss of cognitive function: is stabilized
[6]
  affinity for sigma-1 receptor: low micromolar range
[7]
  affinity for muscarinic acetylcholine receptors: low micromolar range
[8]; in the dose-range tested
  hyperphosphorylation of Tau on physiological (AT-8) and pathological (AT-100) epitopes: attenuated
[8]; mice one week after i.c.v. injection of oligomeric Aβ25-35
  oxidative stress, caspases induction, cellular loss and learning and memory deficits: attenuating
[8]; mice, Aβ25-35
  Aβ25-35-induced P-Akt decrease and P-GSK-3β increase: blocked
[8]; mouse, in vivo
  Aβ25-35-induced endogenous Aβ1-42 seeding: decrease
